Paper PMC6886544

Key:
FGR = FGR (Homo sapiens, UniProt P09769); assay: SelectScreen kinase profiling, FGR; type: biochemical; details: mean ± SD of one measurement in duplicates
Procedure: Kinase profiling of compound 17a at a concentration of 1 µM generated with the SelectScreen® Profiling Service from Life Technologies.
Figure S2. Kinase profiling of compound 17a, Illustration as waterfall plot. 9 Kinases harboring a Cysteine isostructural to Cys797 in EGFR are highlighted
Kinase % inhibition Kinase % inhibition […]
aValues are the mean ± SD of one measurement in duplicates; bKinases harboring a Cysteine isostructural to Cys797 […]
(1 picture or pasted object on this page, not shown here)

[1] = system: EGFR and downstream cascade phosphorylation in A431 cells; assay: Western blot analysis in A431 cells; type: cell-based; details: 1 h inhibitor then EGF stimulation
Procedure: (§1) and incubated at 37 °C and 5% CO2. On day 2 cells were starved over night with media containing 0.5% FBS to be incubated on day 3 for 1 h with EGFR inhibitors following an additional 30 min of EGF stimulation at 50 ng/mL. The media was discarded and cells were washed once with DPBS
(§2) 1x. Using 100 μL per well of lysis buffer, cells were then scraped off and lysed while rotating (Stuart Scientific, Staffordshire, UK) for 1 h at 4 °C. […] Supernatant was transferred into new tube and protein concentrations were determined with the Bio-Rad Protein Assay (Bio-Rad Laboratories, Hercules, CA). […]
(§3) captured and quantified using a FUJI LAS3000 system with Science Lab 2001 ImageGauge 4.0 software (Fujifilm Medial Systems, Stamford CT, USA). […]
(§4) glycerol, 1 mM TCEP, pH 8) on ice for 1 h. We analyzed the aliquots by ESI-MS using an Thermo Fisher Scientific Dionex UltiMate 3000 HPLC system connected to a Thermo Fisher Scientific Velos Pro (2d ion trap). Therefore, 5 μL of sample was injected and separated using a Vydac 214TP C4 5 μm column (150 mm x 2.1 mm) starting at 20% of solvent B for 5 minutes followed by a gradient up to 90% of solvent B over 14 min with a flow rate of 210 μL/min with 0.1% TFA in water as solvent A and 0.1% TFA in MeCN as solvent B. A mass range of 700 to 2000 m/z was scanned and raw data was deconvoluted and analyzed with MagTran software (Z.Q. Zhang, A.G. […]

[2] = system: EGFR and downstream cascade phosphorylation in H1975 cells; assay: Western blot analysis in H1975 cells; type: cell-based; details: 1 h inhibitor then EGF stimulation
Procedure: as §1, §2, §3, §4

Sequence of FGR (P09769 whole entry): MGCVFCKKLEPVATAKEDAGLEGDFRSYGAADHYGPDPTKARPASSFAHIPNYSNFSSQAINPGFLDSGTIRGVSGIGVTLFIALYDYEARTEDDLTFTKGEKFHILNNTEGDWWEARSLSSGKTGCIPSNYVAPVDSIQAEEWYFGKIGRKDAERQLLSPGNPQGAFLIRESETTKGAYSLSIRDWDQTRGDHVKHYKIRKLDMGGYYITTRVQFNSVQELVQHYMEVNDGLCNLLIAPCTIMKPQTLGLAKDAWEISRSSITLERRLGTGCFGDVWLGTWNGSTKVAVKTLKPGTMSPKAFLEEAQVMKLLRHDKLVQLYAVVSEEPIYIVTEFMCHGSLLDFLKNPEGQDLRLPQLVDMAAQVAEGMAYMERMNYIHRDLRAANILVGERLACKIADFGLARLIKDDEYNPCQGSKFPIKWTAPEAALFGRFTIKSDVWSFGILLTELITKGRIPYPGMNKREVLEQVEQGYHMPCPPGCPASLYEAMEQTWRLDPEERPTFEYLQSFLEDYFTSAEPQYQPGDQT

inhibition at 1 µM (FGR): 92 ± 1%
Compound: C=CC(=O)Nc1cccc(-c2c(-c3ccc(CN4CCN(C)CC4)cc3)[nH]c3ncnc(OC)c23)c1 [Compound 17a]
concentration at which phosphorylation of EGFR and downstream proteins was reduced [1]: about 1 μM
concentration at which phosphorylation of EGFR and downstream proteins was reduced/inhibited [2]: around 100 nM
